According to article PMC5648829 (Scientific Reports, 2017):
Where a SMILES comes first, the peptide text is derived from it.

Columns and labels:
LTA4H = target: T1, LTA4H (Homo sapiens, UniProt P09960); test: PGP degradation assay in human blood; type: cell-based; set-up: Fresh blood was collected in heparinized tubes by venipuncture from volunteers; from tissue; host or cells: fresh human whole blood from volunteers, diluted 1:3 in RPMI; conditions: untreated and LPS stimulated blood, 24 h at 37 °C
T1 sequence (P09960 1-611): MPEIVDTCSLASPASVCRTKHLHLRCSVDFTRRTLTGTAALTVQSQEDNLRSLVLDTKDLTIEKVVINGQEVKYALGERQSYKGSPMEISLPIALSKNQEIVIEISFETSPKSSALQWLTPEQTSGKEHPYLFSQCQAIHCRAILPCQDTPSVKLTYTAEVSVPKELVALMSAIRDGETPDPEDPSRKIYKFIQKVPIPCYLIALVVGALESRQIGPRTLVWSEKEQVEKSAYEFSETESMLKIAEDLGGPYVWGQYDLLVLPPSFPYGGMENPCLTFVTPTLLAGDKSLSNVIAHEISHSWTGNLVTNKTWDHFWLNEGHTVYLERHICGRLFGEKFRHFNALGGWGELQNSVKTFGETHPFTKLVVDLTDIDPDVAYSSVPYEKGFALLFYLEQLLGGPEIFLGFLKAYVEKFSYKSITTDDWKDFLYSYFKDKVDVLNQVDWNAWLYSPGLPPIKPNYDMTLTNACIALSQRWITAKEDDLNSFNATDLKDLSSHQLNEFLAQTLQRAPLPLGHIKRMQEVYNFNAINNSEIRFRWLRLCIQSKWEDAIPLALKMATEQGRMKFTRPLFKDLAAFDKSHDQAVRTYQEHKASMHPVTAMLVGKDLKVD
Protocol: Fresh blood was collected in heparinized tubes by venipuncture from volunteers from the Novartis Blood Donor Center, Basel. The blood was diluted 1:3 in Roswell Park Memorial Institute (RPMI) containing HEPES (0.025 M). […] PGP and LPS were added at final concentrations of 2 µg/ml each and incubated up to 24 h at 37 °C, 5% CO2 and 90% humidity before samples were collected for LC-MS/MS analysis.

human neutrophils [1] = test: Human neutrophil shape change assay; type: cell-based; conditions: up to 100 μM
Protocol: Neutrophils were purified by Ficoll density gradient centrifugation from human blood and incubated with graded concentrations of PGP, Ac-PGP or the known neutrophil chemoattractant GROα in assay buffer containing BSA (0.1%) in PBS for 10 min at 37 °C, 5% CO2 and 90% humidity. Cells were then fixed and shape change analyzed by flow cytometry.

human neutrophils [2] = test: Human neutrophil calcium flux assay; type: cell-based; conditions: up to mM concentrations
Protocol: Purified human neutrophils were incubated in Calcium 5 loading buffer (Molecular Devices) containing Probenecid (2.5 mM, SIGMA) at 37 °C, 5% CO2 and 90% humidity for 1 h. 20 µl of the cell suspension were then transferred to a black 384-well plate with clear bottom and centrifuged at 100 g for 4 min. Test compounds PGP, Ac-PGP and fMLP (SIGMA) were prepared at graded concentrations in HBSS containing HEPES (20 mM). Fluorescence was measured in FLIPR Tetra reader (Molecular Devices) every second before and after the addition of 5 µl of compounds dilutions. The calculated F index is the difference between the maximum signal and the average baseline signal, divided by the average baseline signal.

human neutrophils [3] = system: human neutrophils; set-up: method as in earlier work; conditions: ref 27 Haddox et al.; read-out: EC50 chemotaxis of human neutrophils; cited from earlier work
[4] = system: neutrophil influx into lungs; test: Stimulation of lungs with PGP and Ac-PGP (intra-tracheal); type: in vivo, mouse; conditions: PGP up to 500 μg intra-tracheal, wt or LTA4H KO mice, 24 h
Protocol: PGP or Ac-PGP in increasing doses up to 500 ug per mouse were applied by intra-tracheal administration in 50 µl PBS to female LTA4H KO or wild type mice. After 24 h, the mice were euthanized and BALF was collected by cannulating the trachea with a catheter and lavaging the lungs 3 times with 0.4 ml cold PBS. The lavage fluid was then centrifuged and the cells analyzed by flow cytometry. Cell supernatants were used for analysis of MPO and cytokine content in BALF.

[5] = PGP degradation assay in BALF ex-vivo (LC-MS/MS); type: in vitro ADME, mouse
Protocol: 200 µl of BALF were spiked with PGP and Ac-PGP at the final concentration of 10 nM. […] After incubation, samples were filtered (Amicon Ultra-0.5, Membrane Ultracel-30, PMNL 30 kD) by centrifugation (3 min at 10,000 × g). Filtered samples were transferred to vials for liquid chromatography tandem mass spectrometry (LC-MS/MS) analysis. The LC system consisted of an Acquity UPLC I-Class interfaced with a Xevo-TQS triple quadruple MS (Waters). […] PGP was monitored with MRM m/z transitions of 270.1 > 173.1 (quantifier) and 270.1 > 70.1 and 270.1 > 116.1 (qualifiers). Ac-PGP was monitored with m/z transitions of 312.2 > 112.1 (quantifier) and 312.2 > 116.1 and 312.2 > 140.1 (qualifiers).

[6] = system: neutrophil influx into dorsal air-pouch; test: Air-pouch model of acute inflammation; type: in vivo, mouse; conditions: for PGP concentration in air-pouch exudate: PGP 500 μg/mouse
Protocol: Air-pouches were formed by subcutaneous injection of 5 ml air through a 0.22 μm filter on the backs of female LTA4H KO or wt mice. The patency of the cavity was maintained by a further 3 ml injection on day 3. Six days after the initial injection of air, LPS at 10 µg/animal and PGP, Ac-PGP, at different concentrations up to 500 µg/animal were injected into the air pouches. […] An incision was made on the top of the pouch and the injected lavage fluid pipetted out into an eppendorf tube. An aliquot of air pouch lavage fluid was used to determine total cell counts on an Advia 120® Haematology Analyser. To determine differential cell counts, cytospins were prepared for all pouch fluid samples. The cytospins were air dried prior to staining with DiffQwik differential staining solutions. Differential cell counts were performed manually (x200 magnification) to determine the percentage of neutrophil and non-neutrophil cell populations in each sample.

human neutrophils [7] = test: ROS generation in human neutrophils; type: cell-based; conditions: up to mM concentrations
Protocol: Purified human neutrophils were plated in RPMI + FCS (5%) in 96-well cell culture plates (100,000 cells/well). Dihydrorhodamine 123 (SIGMA) was added at a final concentration of 3 µM together with PGP, Ac-PGP and fMLP (SIGMA) at graded concentrations and incubated for 30 min at 37 °C, 5% CO2 and 90% humidity. […] Amount of generated ROS is given as GMFI (sample)/GMFI (unstimulated control).

human neutrophils [8] = test: Human neutrophil chemotaxis assay; type: cell-based; conditions: graded concentrations up to mM range, 90 min at 37 °C
Protocol: Purified human neutrophils were labeled with calcein-AM (Fluka, Buchs, Switzerland). Test compounds (PGP, Ac-PGP, RTR, and Ac-RTR) or IL-8 (Sigma) as positive chemoattractant control were diluted in RPMI containing BSA (0.1%) and added at graded concentrations into the wells of a 96-well ChemoTX plate (3.2 mm diameter, 5 µm pore size; NeuroProbe, Gaithersburg, MD). Labeled cells (50,000 per well) were added onto the filters above the wells that received the test compounds. Plates were incubated for 90 min at 37 °C. The filters were removed and fluorescence in the receiving wells was measured using a SpectraMAX Gemini EM instrument (Molecular Devices, Sunnyvale, CA; λex = 485 nm; λem = 538 nm). The chemotactic index was measured as the ratio of fluorescence in the test wells and in control (buffer only) wells.

sputum neutrophils = system: sputum neutrophils; set-up: method as in PMID 27806191; conditions: cystic fibrosis patients; cited from earlier work
[9] = system: asthma bronchial allergen challenge; set-up: method as in PMID 25018015; conditions: asthma bronchial allergen challenge trial; cited from earlier work

O=C(NCC(=O)N1CCC[C@H]1C(=O)O)[C@@H]1CCCN1 [PGP, H-Pro-Gly-Pro] (H-Pro-Gly-Pro-OH)
Degradation of PGP in human blood (LTA4H): complete disappearance
neutrophil shape change response (human neutrophils [1]): no response
induction of Ca2+ flux (human neutrophils [2]): neither PGP nor Ac-PGP induced
EC50 (human neutrophils [3]): 15 mM
influx of neutrophils by flow cytometry of BALF cells [4]: neither able to detect influx of neutrophils
myeloperoxidase (MPO) in BALF ([4]; versus PBS control): nor elevation of myeloperoxidase (MPO) beyond the PBS control
PGP level after spiking into BALF ([5]; BALF from LPS challenged wt mice, PGP 10 nM, 4 h at 37 °C): undetectable levels
PGP still present ([5]; exudate (BALF) of LTA4H KO mice, after 24 h): over 80%
cell influx in air-pouch ([6]; 500 μg PGP, LTA4H KO mice, 24 h): failed to detect significant cell influx
PGP concentration in air-pouch exudate ([6]; LTA4H KO mice, 1 h after injection): approximately 1 µg/ml
PGP concentration in air-pouch exudate ([6]; LTA4H KO mice, 4 h and 24 h after injection): no PGP was detectable
cell numbers (neutrophil influx) in air-pouch ([6]; PGP up to 500 μg per air-pouch, Balb/c mice, 4 h): did not show elevated cell numbers compared to saline control
neutrophil influx in air-pouch ([6]; mice pre-treated with 30 mg/kg DG-051 before PGP injection, 4 h): unable to detect neutrophil influx
ROS production (human neutrophils [7]): neither PGP nor Ac-PGP induced
neutrophil chemotaxis (human neutrophils [8]): no significant increase in chemotaxis

O=C(O)c1ccc(CN2C[C@@H]3C[C@H]2CN3Cc2ccc(Oc3ccc(-c4ncco4)cc3)cc2)cc1 [Acebilustat]
reduction of sputum neutrophils (sputum neutrophils): 65%

CC(=O)NC1C[C@H]2CC[C@@H](C1)N2Cc1ccc(Oc2nc3ncccc3s2)cc1 (some centres unmarked) [JNJ-40929837]
clinical efficacy [9]: did not show efficacy
